Reference: the supplement of paper PMC10307832

How the values were obtained:
Assay in all cases: relative viability (nuclei count vs DMSO), 5 days (fraction); higher = more cells survive
[1] = compound: O=C(c1cc(Cc2n[nH]c(=O)c3ccccc23)ccc1F)N1CCN(C(=O)C2CC2)CC1 [Olaparib] + C[C@]1(O)C[C@@H](c2nc(-c3ccc4ccc(-c5ccccc5)nc4c3)c3c(N)nccn32)C1 [Linsitinib] (partner 1 µM)
Procedure, shortened: (§1)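 Cells from lung cancer lines were seeded into 1536-well plates and, one day later, dosed by pin tool. Treatments were either a single drug or a fixed dose of an anchor drug with five library-drug doses (not always all listed) in √10 steps. After 5 days, nuclei were stained in a one-step fixation (final 0.05% Triton X-100, 1% formaldehyde, 1 ug/ml Hoechst) and counted on 4× images, and relative viability is the treated-to-vehicle nuclei ratio, as the median of duplicate plates.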

[2] = compound: CC(C)C[C@H](NC(=O)[C@H](CCc1ccccc1)NC(=O)CN1CCOCC1)C(=O)N[C@@H](Cc1ccccc1)C(=O)N[C@@H](CC(C)C)C(=O)[C@@]1(C)CO1 [Carfilzomib] + NC(=O)Nc1cc(-c2cccc(F)c2)sc1C(=O)N[C@H]1CCCNC1 [AZD7762] (partner 0.2 µM)
Procedure, shortened: as §1

[3] = compound: O=C(c1cc(Cc2n[nH]c(=O)c3ccccc23)ccc1F)N1CCN(C(=O)C2CC2)CC1 [Olaparib] + Cc1nc(NC(=O)N2CCC[C@H]2C(N)=O)sc1-c1ccnc(C(C)(C)C(F)(F)F)c1 [Alpelisib] (partner 2 µM)
Procedure, shortened: as §1

[4] = compound: C[C@@H](Oc1cc(-c2cnn(C3CCNCC3)c2)cnc1N)c1c(Cl)ccc(F)c1Cl [Crizotinib] + N=C(N)NC(=N)NCCc1ccccc1 [Phenformin] (partner 250 µM)
Procedure, shortened: as §1

| Cell Line | relative viability ([1]; first compound 0.08 µM) | relative viability ([1]; first compound 0.253 µM) | relative viability ([1]; first compound 2.53 µM) | relative viability ([1]; first compound 8 µM) | relative viability ([2]; first compound 0.001 µM) | relative viability ([2]; first compound 0.003162 µM) | relative viability ([2]; first compound 0.01 µM) | relative viability ([2]; first compound 0.03162 µM) | relative viability ([2]; first compound 0.1 µM) | relative viability ([3]; first compound 0.08 µM) | relative viability ([3]; first compound 0.253 µM) | relative viability ([3]; first compound 2.53 µM) | relative viability ([3]; first compound 8 µM) | relative viability ([4]; first compound 0.01 µM) | relative viability ([4]; first compound 0.03162 µM) | relative viability ([4]; first compound 0.1 µM) | relative viability ([4]; first compound 0.3162 µM) | relative viability ([4]; first compound 1 µM) |
| --- | --- | --- | --- | --- | --- | --- | --- | --- | --- | --- | --- | --- | --- | --- | --- | --- | --- | --- |
| NCI-H1993 | 0.745 | 0.749 | 0.831 | 0.78 | 0.625 | 0.841 | 0.69 | 0.589 | 0.503 | 0.691 | 0.657 | 0.746 | 0.742 | 0.493 | 0.51 | 0.534 | 0.507 | 0.509 |
| NCI-H2085 | 0.982 | 0.868 | 0.819 | 0.677 | 0.726 | 0.942 | 0.988 | 0.321 | 0.293 | 1.08 | 0.883 | 0.92 | 0.835 | 0.626 | 0.807 | 0.703 |  | 0.872 |
| NCI-H2087 | 0.984 | 0.912 | 0.83 | 0.685 | 1.21 | 1.31 | 0.946 | 0.515 | 0.0622 | 1.21 | 0.95 | 1.02 | 0.706 | 0.36 | 0.502 | 0.508 |  | 0.462 |
| NCI-H2126 | 0.808 | 0.641 | 0.698 | 0.7 | 0.875 | 1 | 1.01 | 1.01 | 0.697 | 0.794 | 0.743 | 0.712 | 0.728 | 0.464 | 0.591 | 0.511 | 0.528 | 0.507 |
| NCI-H2347 | 1.03 | 0.879 | 0.823 | 0.816 | 0.696 | 0.814 | 0.642 | 0.229 | 0.289 | 1.11 | 0.978 | 0.932 | 0.783 | 0.24 | 0.329 | 0.473 | 0.488 | 0.333 |
| NCI-H2405 | 1.15 | 0.93 | 0.915 | 0.851 | 0.717 | 0.783 | 0.932 | 0.689 | 0.262 | 1.01 | 0.816 | 0.728 | 0.73 | 0.364 | 0.417 | 0.378 | 0.412 | 0.398 |
| NCI-H3122 | 0.95 | 1.04 | 0.954 | 0.899 | 0.948 | 1.05 | 1 | 0.895 | 0.588 | 0.7 | 0.638 | 0.867 | 0.668 | 0.374 | 0.38 | 0.4 | 0.333 | 0.236 |
| PC-3 [JPC-3] | 0.93 | 0.914 | 0.962 | 0.908 | 0.882 | 0.762 | 0.993 | 0.512 | 0.248 | 1.01 | 1.01 | 1.01 | 0.989 | 0.469 | 0.506 | 0.482 | 0.452 | 0.482 |
| PC-14 | 1.02 | 0.856 | 0.859 | 0.815 | 0.377 | 0.368 | 0.392 | 0.158 | 0.0776 | 0.988 | 0.859 | 0.931 | 0.792 | 0.562 | 0.675 | 0.642 | 0.526 | 0.522 |
| RERF-LC-KJ | 0.939 | 0.903 | 0.948 | 0.902 | 0.827 | 1.11 | 1.24 | 0.927 | 0.309 | 0.826 | 0.806 | 0.845 | 0.883 |  | 0.421 | 0.409 | 0.435 | 0.409 |
